# Assay results reported in patent US20140296143A1, “Angiotensin-(1-7) As A Chemoprevention Agent” (Wake Forest Innovations, priority 2008, published 2014).
# Square brackets hold non-standard residues; d marks the D form. Ends that are not written are not given here.
# Experiments:
# [1] = test system: SK-LU-1 lung cancer cells; assay type: cell-based, human; conditions: for effect of antagonist on inhibition of serum-stimulated growth by Ang-(1-7): SK-LU-1, antagonist pretreatment (1 μM); for effect on serum-stimulated ^3H-thymidine incorporation: SK-LU-1, peptide at 1 or 100 nM
# Protocol: Cells were grown to subconfluence in either 24-well cluster plates or 100 mm dishes and made quiescent by treatment for 48 h with serum-depleted growth media, prior to the experiments outlined below to measure cell growth (^3H-thymidine incorporation), cell signaling or apoptosis.
# Subsequently, the cell monolayer was washed with cold phosphate-buffered saline (PBS; 50 mM NaPO4, 120 mM NaCl, pH=7.2). The adherent cells were precipitated with cold 10% TCA (4° C. for 30 min) and dissolved in 0.2% SDS in 0.1 N NaOH.
# During an additional 4 h, cell monolayers were pulsed with ^3H-thymidine (0.25 μCi/well) and harvested.
# [2] = test system: VSMCs; conditions: pretreatment; U.S. Pat. No. 7,375,073; cited from earlier work
# [3] = target: T1, AT2 angiotensin receptor (Homo sapiens, UniProt P50052); conditions: literature; cited from earlier work
# T1 sequence (P50052 1-363): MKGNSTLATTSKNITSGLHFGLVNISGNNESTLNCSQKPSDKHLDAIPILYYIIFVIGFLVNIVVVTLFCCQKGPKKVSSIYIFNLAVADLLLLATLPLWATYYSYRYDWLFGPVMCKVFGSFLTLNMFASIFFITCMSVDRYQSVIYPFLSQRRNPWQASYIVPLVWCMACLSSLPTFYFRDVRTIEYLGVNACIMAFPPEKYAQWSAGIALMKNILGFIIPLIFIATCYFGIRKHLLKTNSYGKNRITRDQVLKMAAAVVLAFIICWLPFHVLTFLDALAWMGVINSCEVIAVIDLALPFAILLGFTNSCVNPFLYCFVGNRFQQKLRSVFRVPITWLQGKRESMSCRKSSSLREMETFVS
# [4] = test system: AT1 angiotensin receptor; conditions: literature; cited from earlier work
# AT1 angiotensin receptor, sequence (P30556 whole entry): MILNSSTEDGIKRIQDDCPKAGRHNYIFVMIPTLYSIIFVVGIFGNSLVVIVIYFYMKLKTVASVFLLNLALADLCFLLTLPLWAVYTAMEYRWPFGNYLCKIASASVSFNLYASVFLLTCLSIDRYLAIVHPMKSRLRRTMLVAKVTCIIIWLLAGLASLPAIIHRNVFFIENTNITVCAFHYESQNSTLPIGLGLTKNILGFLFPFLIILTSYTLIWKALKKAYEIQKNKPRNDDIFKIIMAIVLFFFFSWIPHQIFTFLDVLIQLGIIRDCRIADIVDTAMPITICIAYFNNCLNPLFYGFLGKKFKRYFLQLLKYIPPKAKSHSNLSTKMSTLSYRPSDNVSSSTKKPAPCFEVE
# [5] = test system: EA.hy.926 cells; experiment: Tube formation of endothelial cells in Matrigel; assay type: cell-based, human; conditions: selective Ang-(1-7) receptor antagonist
# Protocol: These cells are a transformed human endothelial cell line derived from umbilical vein endothelial cells. They retain their endothelial phenotype and were previously used to study angiogenesis.
# After a 16 h incubation period to allow tube formation, cultures were photographed and branch points were counted, to quantify tube formation.
compound,measurement,setting,value
CCCCc1nc(Cl)c(CO)n1Cc1ccc(-c2ccccc2-c2nn[nH]n2)cc1 [Losartan],effect of antagonist on inhibition of serum-stimulated growth by Ang-(1-7),[1],"neither AT1 nor AT2 angiotensin receptor antagonists Losartan and PD123177, respectively, were effective"
Cc1cc(Cn2cnc3c2CC(C(=O)O)N(C(=O)C(c2ccccc2)c2ccccc2)C3)ccc1N (stereo not drawn) [PD123177],effect of antagonist on inhibition of serum-stimulated growth by Ang-(1-7),[1],"neither AT1 nor AT2 angiotensin receptor antagonists Losartan and PD123177, respectively, were effective"
"CCN(CC)CC.Nc1ncnc2c1ncn2[C@@H]1O[C@@H]2COP(O)(=S)O[C@H]2[C@H]1O (stereo partly drawn) [Rp-cAMPS, Rp-adenosine-3′,5′-cyclic monphospho-phorothioate triethylamine salt]",effect on the reduction in serum-stimulated ^3H-thymidine incorporation by Ang-(1-7) or carbacyclin,[2],completely blocked
Arg-Val-Tyr-Ile-His-Pro-Phe (RVYIHPF; listed as Homo sapiens) [Ang-(2-8)],effect on serum-stimulated ^3H-thymidine incorporation,[1],ineffective
Asp-Arg-Val-Tyr-Ile-His-Pro-Phe [Ang II],effect on serum-stimulated ^3H-thymidine incorporation,[1],ineffective
DRVYIHPFHL [Ang I],effect on serum-stimulated ^3H-thymidine incorporation,[1],ineffective
Val-Tyr-Ile-His-Pro (VYIHP; listed as Homo sapiens) [Ang-(3-7)],effect on serum-stimulated ^3H-thymidine incorporation,[1],ineffective
Val-Tyr-Ile-His-Pro-Phe (VYIHPF; listed as Homo sapiens) [Ang-(3-8)],effect on serum-stimulated ^3H-thymidine incorporation,[1],ineffective
"[D-Ala^7]-Ang-(1-7): a modified form of Ang-(1-7), selective Ang-(1-7) antagonist (DRVYIH[dA]) [reference compound]",competition at the AT2 receptor,[3],poor competitor
same,effect of antagonist on inhibition of serum-stimulated growth by Ang-(1-7),[1],blocked
same,competition at the AT1 receptor,[4],poor competitor
[D-Pro^7]-Ang-(1-7): a selective Ang-(1-7) receptor antagonist [reference compound],effect on Ang-(1-7)-mediated reduction in tube formation,[5],prevented
